# Experimental data as given in patent publication US11439713B2, “Method for creating a renal injury model to screen molecules for the treatment of renal injury” (BAYER AKTIENGESELLSCHAFT, priority 2017, dated 2022).
# “Also recorded” adds a separate entry of the source.
# How the values were obtained:
# Type in all cases: in vivo
# C57Bl/6 mice = experiment: AGISHA model with AngII as injury inducer (ACR in urine); settings: for ACR in urine collected for 4 hours after AngII bolus injections: vs NaCl control group; for ACR in urine collected for 4 hours after first AngII bolus injections, experimental day 1: vs NaCl group
# From the text: Five groups with 10-12 mice per group (C57Bl/6, Charles River Laboratories, 6-7 weeks old) were set for one experiment. After delivery, animals remained in a temperature- and light-controlled room with standardized mouse chow and water ad libitum for a one week acclimatization period, following guidelines of local governmental institutions (LANUV Germany). The groups were divided as follows (see FIG. 1): • 1. Control group without AngII bolus injection, but with control saline and additional (oral) administration of drug vehicle (10% ethanol, 40% solutol, 50% water or saline). • 2. AngII group, treated with AngII in normal saline, and drug vehicle. AngII administration occurred in two bolus injections (i.v.+s.c.) of 10 μg (5 μg i.v.+5 μg s.c.), 16 μg (8 μg i.v.+8 μg s.c.) and 20 μg (10 μg i.v.+10 μg s.c.) per mouse, where the first bolus was injected intravenously and the second bolus subcutaneously. The drug vehicle was administered orally.
# 3. Candidate groups 3 and 4: AngII injection and additional treatment with the investigated drug/drugs. For substance testing, drugs or appropriated vehicles were administered orally, via i.v., s.c., or i.p. Administration occurred prior to or after AngII-injection. For example, investigated drug/drugs were given orally 30 minutes before the induction of the injury. • 4. Group 5 is the positive control group Animals were injected with AngII and treated orally with Losartan 30 mg/kg. Losartan is an AngII receptor blocker AT1 (Pieter B M et al, Pharma. Rev., 1993, Kang P M et al, Progress in Cardiology, 1994).
# After AngII injection animals were placed in metabolic cages (Technoplast, Italy) for urine collection for up to 4 hours. At the end of the experiment the urine was analyzed to quantify the ACR. More specifically, the collected urine was analyzed using an automatic analyzer for urinary albumin as well as urinary creatinine (Coban® Integra 400, Roche, Basel, SUI) or using the Mouse albumin ELISA kit (ABCAM, Cambridge, UK). […] The AGISHA model was performed in 3 identical cycles with a one-week break for recovery.
# Negative and positive control experiment. To confirm the findings shown in FIG. 2-4, the mode of action in AGISHA was investigated. In the following experiment, three of the animal groups were pre-treated with three different drugs by oral application 30 minutes before administration of injury inducer (see FIG. 5). • 1) Enalapril 10 mg/kg, an angiotensin-converting enzyme (ACE) inhibitor, is standard of care for high blood pressure. It was used as positive modulator control 1 of the renin-angiotensin system (RAS) in the AGISHA model. • 2) Losartan potassium, 30 mg/kg, angiotensin II type I receptor (AT1) antagonist, standard of care for high blood pressure (Kang et al, 1994; Sica D A et al, Clin Parmacokinet., 2005) was used as positive modulator control 2 of the RAS system in the AGISHA model. • 3) Tivozanib, 3 mg/kg, vascular endothelial grow factor receptor tyrosine kinase inhibitor (Campas C et al, Drugs Fut., 2009) was used as negative modulator of the RAS system during AGISHA model. […]
# The experiment was performed as described in example 5, except that the sGC stimulator 5-cyclopropyl-2-[1-(2-fluorobenzyl)-1H-pyrazolo[3,4-b]pyridin-3-yl]pyrimidin-4-amine was used for treatment. […] Losartan (30 mg/kg) was used as positive control.
# C57Bl/6/J male mice = experiment: GFBI test model with AngII (transcutaneous fluorescence of Ficoll-FITC); settings: for Half-life of the fluorescent molecule in the blood 2 h after AngII bolus injection: vs control
# Method: After delivery, C57Bl/6/J male mice remained in a temperature- and light-controlled room with standardized mouse chow and water ad libitum for a one week acclimatization period, following guidelines of local governmental institutions (LANUV Germany). C57Bl/6/J mice (6-7 weeks) received an intravenous mixture of FITC-FICOLL 70 kDa (Sigma) and 10 μg AngII mix 100 μL, followed by a 10 μg (100 μL) subcutaneous AngII bolus as described in example 1. The groups were divided as follows, see FIG. 17:
# 1. Control group without AngII bolus injection, but with control saline 0.9%+Ficoll-FITC 150 mg/kg and additional s c administration of a bolus of NaCl 0.9%.
# 2. AngII group, treated with AngII in two bolus injections (10 μg/mouse of AngII+Ficoll-FITC, 150 mg/kg, both dissolved in 0.9% NaCl, first bolus injected i.v. via tail vein (5 μg AngII) and a second subcutaneous bolus injection (5 μg AngII).
# 3. AngII group, treated with AngII in two bolus injections (20 μg/mouse total AngII+Ficoll-FITC, 150 mg/kg 150 mg/kg, both dissolved in 0.9% NaCl, first bolus injected i.v. via tail vein (10 μg AngII) and a second subcutaneous bolus injection (10 μg AngII).
# TF of the FICOLL-FITC was detected via the transcutaneous method developed by MediBeacon Inc. (MediBeacon Inc., Mo., USA). In brief: all experimental animals were shaved with standard mask anesthesia 1 h before the determination of TF for the FICOLL-FITC Immediately after the injury induction the portable transcutaneous measurement device was placed on the left dorsal back side of the animal for 2 hours. The results were analyzed with the MediBeacon Inc. software. […] The decay of the Ficoll-FITC dye was visualized as a flat line, with a half-life of ca. 396 minutes.
# mice [1] = experiment: GFR-based model with AngII and Sinestrin-FITC (GFR acute modulation); settings: for GFR 2 hrs after AngII bolus injection: vs control group
# From the text: Acute GFR modulation is a relevant phenomenon in the field of nephrology (Fergusan and […], Clin. Chem., 58(4), 2012, p. 680-689). GFR is the major readout parameter for chronic kidney disease (CKD) stage assessment (Lopez-Giacoman and Madero, World J Nephrol. 4(1), 2015, 57-73). The GFR is also a very stable and robust physiological parameter that is subject to positive and negative feedback regulation. The following protocol and experimental setup (FIG. 21) was established to model acute GFR modulation. 1. Control group without AngII bolus injection, but with control saline (0.9%)+[…] 150 mg/kg and additional s c administration of 0.9% NaCl (100 μl+100 μl) 2. AngII group, treated with AngII in two bolus injections: First bolus of 20 μg/mouse of AngII in normal saline administered in combination with […] 150 mg/kg, 50 μl+50 μl, injected via tail vein. Second bolus injected s.c. comprising 20 μg AngII, 100 μl. 3. Losartan group was treated orally with 30 mg/kg of Losartan Potassium, 30 min prior to the AngII injury. AngII injury occurred in two bolus injections as described for the AngII group (total 40 μg). 1. Control group without AngII bolus injection, but with control saline (0.9%)+[…] 150 mg/kg and additional s.c. administration of 0.9% NaCl (100 μl+100 μl) 2. AngII group, treated with AngII in two bolus injections: First bolus of 20 μg/mouse of AngII in normal saline administered in combination with […] 150 mg/kg, 50 μl+50 μl, injected via tail vein. Second bolus injected s.c. comprising 30 μg AngII, 100 μl. 3. Losartan group was treated orally with 30 mg/kg of Losartan Potassium, 30 min prior to the AngII injury. AngII injury occurred in two bolus injections as described for the AngII group (total 50 μg). For substance testing, animals were pre-treated with the respective drugs or vehicles 30 min before AngII-injection, via oral gavage, s.c, i.p., or tail vein injection. Subsequently, […] mix bolus was administered to the animals with the tracer (FIG. 21).
# mice [2] = experiment: GFR-based model with AVP and Sinestrin-FITC; settings: pre-treatment with Losartan 30 mg/kg; AVP 35 μg
# Method: A similar setup (FIG. 23) was used with AVP (Sigma-Aldrich, Mo.) at a dose of 35 μg, i.e. using a first bolus with 15 μg AVP, injected i.v. in combination with Sinestrin-FITC 150 mg/kg (50 ul+50 ul) and using a second bolus of 20 μg AVP, 100 uL, injected i.v. As before GFR, was decreased by AVP compared with the control group.
# [3] = pre-treatment orally, AngII 10 μg i.v.+10 μg s.c., OGT 2115 40 mg/kg, Losartan Potassium 30 mg/kg, FIG. 10
# [4] = oral 30 minutes before AngII 10 μg i.v.+10 μg s.c., Enalapril 10 mg/kg, Losartan potassium 30 mg/kg, Tivozanib 3 mg/kg, FIG. 6
molecule,measurement,setting,value
"Asp-Arg-Val-Tyr-Ile-His-Pro-Phe (DRVYIHPF; printed: Asp-Arg-Val-Tyr-Ile-His-Pro-Phe) [AngII, human angiotensin II peptide hormone, used as renal injury inducer]",ACR in urine collected for 4 hours after AngII bolus injections,C57Bl/6 mice; AngII 8 μg i.v.+8 μg s.c.,significant induction of ACR
same,ACR in urine collected for 4 hours after AngII bolus injections,C57Bl/6 mice; AngII 10 μg i.v.+10 μg s.c.,significant induction of ACR; also recorded: significant increase of ACR
same,ACR on third experimental day after changed order of stimuli,"C57Bl/6 mice; cross AGISHA, AngII 5 μg dose (group 1) and 10 μg dose (group 2)",dose dependent increase of injury
same,"ACR in urine collected for 4 hours after first AngII bolus injections, experimental day 1","C57Bl/6 mice; cross AGISHA, AngII 5 μg i.v.+5 μg s.c.",significantly increased
same,"ACR in urine collected for 4 hours after first AngII bolus injections, experimental day 1","C57Bl/6 mice; cross AGISHA, AngII 10 μg i.v.+10 μg s.c.",significantly increased
same,"ACR on day 2, 24 hours after first induction of acute glomerular injury","C57Bl/6 mice; cross AGISHA, after AngII 5 μg or 10 μg dose",For none of the groups the analysis shows a detectable ACR
same,Half-life of the fluorescent molecule in the blood 2 h after AngII bolus injection,C57Bl/6/J male mice; AngII 10 μg,decrease in half-life of the fluorescent molecule was significant
same,Half-life of the fluorescent molecule in the blood 2 h after AngII bolus injection,C57Bl/6/J male mice; AngII 20 μg,decrease in half-life of the fluorescent molecule was significant
same,"Half-life of FICOLL-FITC transcutaneous fluorescence, representative curve","C57Bl/6/J male mice; animals treated with AngII, control (0.9% NaCl) ca. 396 minutes",ca. 180 min
same,GFR 2 hrs after AngII bolus injection,mice [1]; total 40 μg AngII (20 μg i.v.+20 μg s.c.),decreased but not significantly decreased; also recorded: decrease in GFR
same,GFR 2 hrs after AngII bolus injection,mice [1]; total 50 μg AngII (20 μg i.v.+30 μg s.c.),highly significant reduction of the GFR; also recorded: significantly reduced
O=C(O)Cc1ccc2oc(-c3ccc(NC(=O)/C=C/c4ccc(Br)cc4)c(F)c3)nc2c1 [OGT2115],Effect on ACR induced by AngII,C57Bl/6 mice; [3],significantly reduced
O=C(O)CCCCN(CCc1cc(F)ccc1OCc1ccc(-c2ccc(C(F)(F)F)cc2)cc1)Cc1ccc(C(=O)O)cc1 [4-({(4-carboxybutyl)[2-(5-fluoro-2-{[4′-(trifluoromethyl)biphenyl-4-yl]methoxy}phenyl)ethyl]amino}methyl)benzoic acid],Reduction of ACR compared with the control group,C57Bl/6 mice; 3 mg/kg orally prior to AngII 10 μg i.v.+10 μg s.c.,71%
same,"AngII induced ACR, mean±SD","C57Bl/6 mice; 3 mg/kg orally prior to AngII 10 μg i.v.+10 μg s.c., urine 4 hours",35 ± 26 µg/mg
COc1cc2nccc(Oc3ccc(NC(=O)Nc4cc(C)on4)c(Cl)c3)c2cc1OC [Tivozanib],Effect on ACR induced by AngII,C57Bl/6 mice; [4],no effect on ACR induced by AngII
CCOC(=O)[C@H](CCc1ccccc1)N[C@@H](C)C(=O)N1CCC[C@H]1C(=O)O [Enalapril],Effect on ACR induced by AngII,C57Bl/6 mice; [4],significantly reduced
CCCCc1nc(Cl)c(CO)n1Cc1ccc(-c2ccccc2-c2nn[nH]n2)cc1 [Losartan],Reduction of AngII induced ACR,"C57Bl/6 mice; Losartan 30 mg/kg orally, positive control, AngII 10 μg i.v.+10 μg s.c.",around 90%
same,Effect on AngII-induced ACR induction,"C57Bl/6 mice; Losartan 30 mg/kg orally, FIG. 2 experiment",AngII bolus had no effect on ACR; also recorded: prevents AngII-induced ACR induction
same,Effect on ACR induced by AngII,C57Bl/6 mice; [4],highly significant reduction of AngII induced injury
same,Effect on ACR induced by AngII,"C57Bl/6 mice; oral 30 minutes before AngII 10 μg i.v.+10 μg s.c., Enalapril 10 mg/kg, Losartan potassium 30 mg/kg, Tivozanib 3 mg/kg, FIG. 6, listed as Losartan potassium",strongest effect
same,Effect on ACR induced by AngII,C57Bl/6 mice; [3],highly significant reduction of AngII induced injury
same,Effect on AngII induced loss of GFR,mice [1]; Losartan Potassium 30 mg/kg orally 30 min prior to AngII total 40 μg,AngII bolus had no effect on the GFR; also recorded: able to completely reverse the effect
same,Effect on AngII induced loss of GFR,mice [1]; Losartan Potassium 30 mg/kg orally 30 min prior to AngII total 50 μg,restored the GFR; also recorded: significant recovery of AngII induced loss of GFR
same,Effect on AVP induced loss of GFR,mice [2],did not restore the normal GFR; also recorded: did not restore or prevent the AVP induced loss of GFR
